In BindingDB's records for doi:10.7270/Q2TX3CTT (Broad Institute, 2010):

Biological target: Glycogen synthase kinase-3 beta (Homo sapiens, UniProt P49841)
Test: GSK3beta kinase inhibitor potency, dose response, biochemical, luminescence, cell-free homogeneous, retest (AID 434954)

Glycogen synthase kinase-3 beta, sequence (P49841 whole entry): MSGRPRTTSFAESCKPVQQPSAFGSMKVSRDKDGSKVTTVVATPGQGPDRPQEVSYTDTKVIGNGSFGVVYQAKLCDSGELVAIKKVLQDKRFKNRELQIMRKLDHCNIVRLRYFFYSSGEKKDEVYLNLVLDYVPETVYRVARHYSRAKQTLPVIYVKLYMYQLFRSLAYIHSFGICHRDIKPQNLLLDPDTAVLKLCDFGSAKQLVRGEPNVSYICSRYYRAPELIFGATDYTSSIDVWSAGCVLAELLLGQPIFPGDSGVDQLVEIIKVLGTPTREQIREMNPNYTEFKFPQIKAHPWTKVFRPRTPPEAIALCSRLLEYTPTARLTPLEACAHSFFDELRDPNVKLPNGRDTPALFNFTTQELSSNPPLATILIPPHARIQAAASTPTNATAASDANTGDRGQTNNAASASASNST

Work on `COc1ccc(C(=O)OCCc2sc[n+](CC(=O)c3ccccc3)c2C)cc1` [4-methoxybenzoic acid 2-(4-methyl-3-phenacyl-5-thiazol-3-iumyl)ethyl ester;bromide] yielded an EC50 of 26 µM.

With `Cc1ccc(S(=O)(=O)NC2=NC(=O)/C(=C/c3ccccc3)S2)cc1` [4-methyl-N-[(5Z)-4-oxo-5-(phenylmethylene)-2-thiazolyl]benzenesulfonamide] the EC50 was greater than 300 µM.

With `Cc1nc(Nc2ccc(S(N)(=O)=O)cc2)sc1C(=O)Nc1ccccc1` [4-methyl-N-phenyl-2-(4-sulfamoylanilino)-5-thiazolecarboxamide] the EC50 was greater than 300 µM.

`CC(=O)CSc1nc(-c2cccs2)c(C#N)c(=O)[nH]1` [4-oxidanylidene-2-(2-oxidanylidenepropylsulfanyl)-6-thiophen-2-yl-1H-pyrimidine-5-carbonitrile] showed an EC50 greater than 300 µM.

`N#Cc1c(O)nc(-c2ccncc2)nc1-c1ccccc1` [4-oxidanylidene-6-phenyl-2-pyridin-4-yl-1H-pyrimidine-5-carbonitrile] was tested, and the EC50 was greater than 300 µM.

`CC(C)Nc1nc(-c2cccnc2)nc(-c2ccccc2)c1C#N` [4-phenyl-6-(propan-2-ylamino)-2-pyridin-3-yl-pyrimidine-5-carbonitrile] showed an EC50 greater than 300 µM.

Work on `N#Cc1c2n(c3c(S)ncnc13)CCCCC2` [4-sulfanylidene-1,6,7,8,9,10-hexahydropyrimido[3,4]pyrrolo[3,5-a]azepine-11-carbonitrile] yielded an EC50 of 0.304 µM.

`Cc1ccc(-c2nn(-c3ccccc3)cc2C=C2C(=O)CC(C)(C)CC2=O)cc1` [5,5-dimethyl-2-[[3-(4-methylphenyl)-1-phenylpyrazol-4-yl]methylidene]cyclohexane-1,3-dione] gave an EC50 greater than 300 µM.

In the case of `COc1cc(NC2=CC(=O)CC(C)(C)C2)cc(OC)c1OC` [5,5-dimethyl-3-(3,4,5-trimethoxyanilino)-1-cyclohex-2-enone], the EC50 is reported as greater than 300 µM.

In the case of `CC1(C)CC(=O)C=C(Nc2cccc(C(F)(F)F)c2)C1` [5,5-dimethyl-3-[[3-(trifluoromethyl)phenyl]amino]cyclohex-2-en-1-one], the EC50 is reported as greater than 300 µM.

`COc1c(CC=C(C)C)cc(C2CC(=O)c3c(O)cc(O)cc3O2)c(CC=C(C)C)c1O` (configuration not stated) [5,7-dihydroxy-2-[3-hydroxy-4-methoxy-2,5-bis(3-methylbut-2-enyl)phenyl]-2,3-dihydrochromen-4-one] was tested, and the EC50 was greater than 300 µM.

With `O=c1cc(-c2ccccc2)oc2cc(O)cc(O)c12` [5,7-dihydroxy-2-phenyl-4H-chromen-4-one] the EC50 was greater than 300 µM.

Work on `COc1cc(OC)c2c(-c3ccccc3)cc(=O)oc2c1` [5,7-dimethoxy-4-phenyl-chromen-2-one] yielded an EC50 greater than 300 µM.

Work on `Cc1cc(C)n2nc(C(=O)NN=Cc3ccc(O)cc3)nc2n1` [5,7-dimethyl-N'-[(4-oxocyclohexa-2,5-dien-1-ylidene)methyl]-[1,2,4]triazolo[1,5-a]pyrimidine-2-carbohydrazide] yielded an EC50 of 15.4 µM.

`COc1cc(-c2cc(=O)c3c(O)c(OC)c(OC)c(O)c3o2)ccc1O` [5,8-dihydroxy-2-(4-hydroxy-3-methoxy-phenyl)-6,7-dimethoxy-chromone] was tested, and the EC50 was 24.9 µM.

`CC1CCCCN1c1nnc(N)s1` (configuration not stated) [5-(2-methyl-1-piperidinyl)-1,3,4-thiadiazol-2-amine] gave an EC50 greater than 300 µM.

Molecule `COc1ccc(C=C2SC(Nc3ccccc3)=NC2=O)cc1` [5-(4-Methoxy-benzylidene)-2-phenylimino-thiazolidin-4-one] has an EC50 greater than 300 µM.

In the case of `Cn1nnnc1Sc1c(Cl)cccc1[N+](=O)[O-]` [5-({2-chloro-6-nitrophenyl}sulfanyl)-1-methyl-1H-tetraazole], the EC50 is reported as greater than 300 µM.

`O=C1NC(=Nc2ccccc2)SC1=Cc1ccccc1` [5-Benzylidene-2-phenylimino-thiazolidin-4-one] showed an EC50 greater than 300 µM.

For `CCCCc1c(O)nc(SCC(=O)c2ccccc2)n(-c2ccccc2OC)c1=O` [5-Butyl-6-hydroxy-3-(2-methoxy-phenyl)-2-(2-oxo-2-phenyl-ethylsulfanyl)-3H-pyrimidin-4-one], the EC50 was greater than 300 µM.

`O=[N+]([O-])c1ccccc1[CH+][N-]n1c(C2CCCCC2)n[nH]c1=S` [5-Cyclohexyl-4-{[1-(2-nitro-phenyl)-meth-(E)-ylidene]-amino}-4H-[1,2,4]triazole-3-thiol] was tested, and the EC50 was 155 µM.

In the case of `Cc1cccc(Nc2nc(NCC3CCCO3)nc(N)c2[N+](=O)[O-])c1` (configuration not stated) [5-Nitro-N-(tetrahydro-furan-2-ylmethyl)-N'-m-tolyl-pyrimidine-2,4,6-triamine], the EC50 is reported as 4.11 µM.

For `O=C1CN=C(c2cccs2)c2c(sc3c2CCCC3)N1` [5-Thiophen-2-yl-1,2,3,4,7,9-hexahydro-10-thia-6,9-diaza-benzo[a]azulen-8-one], the EC50 was 3.09 µM.

`O=C(NN=Cc1ccc(-c2ccc(Cl)c(C(=O)O)c2)o1)c1cc2c(ccc3ccccc32)o1` [5-[5-[(benzo[e][1]benzofuran-2-carbonylhydrazinylidene)methyl]furan-2-yl]-2-chlorobenzoic acid] showed an EC50 greater than 300 µM.

In the case of `O=C(O)c1cc(-c2ccc(C=NNC(=S)Nc3ccccc3)o2)ccc1Cl` [5-[5-[[[anilino(sulfanylidene)methyl]hydrazinylidene]methyl]-2-furanyl]-2-chlorobenzoic acid], the EC50 is reported as greater than 300 µM.

In the case of `CC(C)OCCCNC(=O)c1ccc(CS(=O)(=O)Cc2ccccc2F)o1` [5-[(2-fluorophenyl)methylsulfonylmethyl]-N-(3-propan-2-yloxypropyl)furan-2-carboxamide], the EC50 is reported as greater than 300 µM.

Molecule `COCCCNC(=O)c1ccc(CS(=O)(=O)c2ccc(OC)cc2)o1` [5-[(4-methoxyphenyl)sulfonylmethyl]-N-(3-methoxypropyl)furan-2-carboxamide] has an EC50 greater than 300 µM.

Molecule `COC(=O)c1ccc(CSc2ccc3nnc(-c4ccc(F)cc4)n3n2)o1` [5-[[[3-(4-fluorophenyl)-[1,2,4]triazolo[4,3-b]pyridazin-6-yl]thio]methyl]-2-furancarboxylic acid methyl ester] has an EC50 of 4.59 µM.

`CN1CCN(c2ccccc2NC(=O)c2ccc(Br)o2)CC1` [5-bromanyl-N-[2-(4-methylpiperazin-1-yl)phenyl]furan-2-carboxamide] showed an EC50 of 19.3 µM.

For `COc1ccc(-c2nn(-c3ccccc3)cc2C=NNC(=O)c2ccc(Br)o2)cc1` [5-bromo-N-[[3-(4-methoxyphenyl)-1-phenyl-4-pyrazolyl]methylideneamino]-2-furancarboxamide], the EC50 was greater than 300 µM.

`CCCCCc1cc(O)c2c(C)cc(=O)oc2c1` [5-hydroxy-4-methyl-7-pentyl-1-benzopyran-2-one] showed an EC50 greater than 300 µM.

Molecule `CCCc1cc(O)c2c(C)cc(=O)oc2c1` [5-hydroxy-4-methyl-7-propyl-1-benzopyran-2-one] has an EC50 greater than 300 µM.

With `CCCc1cc(=O)oc2cc(C)cc(O)c12` [5-hydroxy-7-methyl-4-propyl-1-benzopyran-2-one] the EC50 was greater than 300 µM.

`CCCc1cc(=O)oc2cc(C)c(CN3CCCC3)c(O)c12` [5-hydroxy-7-methyl-4-propyl-6-(1-pyrrolidinylmethyl)-2H-chromen-2-one] was tested, and the EC50 was greater than 300 µM.

Work on `O=C(NCCCN1CCCC1=O)c1c(O)n2ccsc2nc1=O` [5-hydroxy-7-oxo-N-[3-(2-oxo-1-pyrrolidinyl)propyl]-6-thiazolo[3,2-a]pyrimidinecarboxamide] yielded an EC50 greater than 300 µM.

`COc1ccc2c(c1)C(=O)C(=O)N2` [5-methoxy-2,3-dihydro-1H-indole-2,3-dione] showed an EC50 greater than 300 µM.

For `Cc1c(C(=O)O)sc2ncnc(N3CCCCC3C)c12` (configuration not stated) [5-methyl-4-(2-methyl-1-piperidinyl)thieno[2,3-d]pyrimidine-6-carboxylic acid], the EC50 was greater than 300 µM.

`Nc1nc(NCC2CCCO2)nc(Nc2ccccc2)c1[N+](=O)[O-]` (configuration not stated) [5-nitro-2-N-(oxolan-2-ylmethyl)-4-N-phenylpyrimidine-2,4,6-triamine] gave an EC50 of 2.17 µM.

In the case of `Cc1ccnc(NC(=O)c2ccc([N+](=O)[O-])o2)c1` [5-nitro-N-(4-methyl-2-pyridinyl)-2-furamide], the EC50 is reported as greater than 300 µM.

`CCCC1=Nc2ncnn2C(c2cccs2)C1C(=O)OCC` (configuration not stated) [5-propyl-7-thiophen-2-yl-1,7-dihydro-[1,2,4]triazolo[1,5-a]pyrimidine-6-carboxylic acid ethyl ester] showed an EC50 of 23.2 µM.

`CC1CCCCN1c1ncnc(N)c1[N+](=O)[O-]` (configuration not stated) [6-(2-methylpiperidin-1-yl)-5-nitro-pyrimidin-4-amine] was tested, and the EC50 was 8.18 µM.

`CCOc1cc(C2Nc3ccccc3N=C3CC(C)(C)CC(=O)C32)ccc1O` (configuration not stated) [6-(3-ethoxy-4-hydroxyphenyl)-9,9-dimethyl-6,8,10,11-tetrahydro-5H-benzo[b][1,4]benzodiazepin-7-one] was tested, and the EC50 was greater than 300 µM.

With `CCc1ccc(Oc2ncnc(N)c2[N+](=O)[O-])cc1` [6-(4-ethylphenoxy)-5-nitro-4-pyrimidinamine] the EC50 was greater than 300 µM.

For `COc1ccc(-c2cn3c(C)c(C(=O)Nc4ccncc4)sc3n2)cc1` [6-(4-methoxyphenyl)-3-methyl-N-(4-pyridyl)imidazo[2,1-b]thiazole-2-carboxamide], the EC50 was greater than 300 µM.

For `CNc1nc(N)nc(-c2cc(Cl)ccc2OC)n1` [6-(5-chloranyl-2-methoxy-phenyl)-N2-methyl-1,3,5-triazine-2,4-diamine], the EC50 was greater than 300 µM.

With `Cc1ccc2nc(-c3ccc4c(c3)NC(=O)CO4)cn2c1` [6-(6-methyl-2-imidazo[1,2-a]pyridinyl)-4H-1,4-benzoxazin-3-one] the EC50 was greater than 300 µM.

In the case of `CC(C)CNc1nc(N)c([N+](=O)[O-])c(N2CCCCCC2)n1` [6-(azepan-1-yl)-N2-(2-methylpropyl)-5-nitro-pyrimidine-2,4-diamine], the EC50 is reported as 98 µM.

`CCSc1ccc2nnc(-c3cccc(F)c3)n2n1` [6-(ethylthio)-3-(3-fluorophenyl)-[1,2,4]triazolo[4,3-b]pyridazine] was tested, and the EC50 was 18.7 µM.

For `COc1ccc(-c2cc(-c3ccco3)nc(O)c2C#N)cc1` [6-(furan-2-yl)-4-(4-methoxyphenyl)-2-oxidanylidene-1H-pyridine-3-carbonitrile], the EC50 was greater than 300 µM.

`Cc1cccc(Nc2nc(N)c([N+](=O)[O-])c(N3CCOCC3)n2)c1` [6-Morpholin-4-yl-5-nitro-N*2*-m-tolyl-pyrimidine-2,4-diamine] was tested, and the EC50 was greater than 300 µM.

`O=C(CSc1n[nH]c(=O)[nH]c1=O)c1ccc(Cl)cc1Cl` [6-[2-(2,4-dichlorophenyl)-2-oxoethyl]sulfanyl-2H-1,2,4-triazine-3,5-dione] showed an EC50 greater than 300 µM.

`CC(CC(=O)N1CCN(c2cccc(Cl)c2)CC1)S(=O)(=O)c1ccc2c(c1)NC(=O)CO2` (configuration not stated) [6-[4-[4-(3-chlorophenyl)piperazin-1-yl]-4-oxobutan-2-yl]sulfonyl-4H-1,4-benzoxazin-3-one] was tested, and the EC50 was greater than 300 µM.
